Key:
[1] = system: SD rats; test: Assay for the facilitatory effect on urinary glucose excretion, Method B (intravenous); format: in vivo, rat; settings: oral glucose 2 g/kg, 24 hours, per 200 g of body weight
Protocol: (§1) Assay for the Facilitatory Effect on Urinary Glucose Excretion
As experimental animal, overnight fasted SD rats (SLC, male, 7 weeks of age, 180–220 g) were used. A test compound (10 mg) was suspended or dissolved in 300 μL of ethanol and dissolved by adding of 1.2 mL of polyethylene glycol 400 and 1.5 mL of saline and then 3.3 mg/mL solution was prepared. A part of this solution was diluted with the solvent (saline:polyethylene glycol 400:ethanol=5:4:1) and then each solution at the concentration of 3.3, 0.33 or 0.033 (mg/mL) was prepared. After the body weights of the rats were measured, the test compound solution was administrated by intravenous injection to the tail vein at the dose of 3 mL/kg (10, 1 and 0.1 mg/kg). For the control, just only the solvent (saline:polyethylene glycol 400:ethanol=5:4:1) was administrated by intravenous injection to the tail vein at the dose of 3 mL/kg. Immediately after this intravenous administration, 200 g/L glucose solution was orally administered at the dose of 10 mL/kg (2 g/kg). The intravenous administration was performed with 26G needle and 1 mL syringe. The oral administration was performed with gastric tube for rat and 2.5 mL syringe. The head count in one group was 3. Collection of urine was performed in metabolic cage after the glucose administration was finished. The sampling time for collection of urine was 24 hours after the glucose administration. After collection of urine was finished, the urine volume was recorded and the urinary glucose concentration was measured. The glucose concentration was measured with a kit for laboratory test: Glucose B-Test WAKO (Wako Pure Chemical Industries, Ltd.). The amount of urinary glucose excretion in 24 hours per 200 g of body weight was calculated from urine volume, urinary glucose concentration and body weight.

[2] = system: ICR mice; test: Acute toxicity test, Method B (subcutaneous); format: in vivo; settings: 600 mg/kg subcutaneous, male ICR mice, 5 animals, observation until 24 hours
Protocol: By adding of the solvent (saline:polyethylene glycol 400:ethanol=5:4:1) to the test compound, 200 mg/mL suspension was prepared. As experimental animal, male 5 weeks of age ICR mice fasted for 4 hours (Clea Japan, 26–33 g, 5 animals in each group) were used. The test suspension described above was subcutaneously administrated to the experimental animals described above at the dose of 3 mL/kg (600 mg/kg) and then observation was performed until 24 hours after the administration.

[3] = system: SD rats; test: Assay for the facilitatory effect on urinary glucose excretion, Method A (subcutaneous); format: in vivo, rat; settings: oral glucose 2 g/kg, 4 hours, per 1 body
Protocol: as §1
As experimental animal, overnight fasted SD rats (SLC, male, 5 weeks of age, 120–150 g) were used. Test compound (25.40 mg) was suspended in 762 μL of ethanol and dissolved by adding of 3.048 mL of polyethylene glycol 400 and 3.81 mL of saline and then 3.3 mg/mL solution was prepared. A part of this solution was diluted with the solvent (saline:polyethylene glycol 400:ethanol=5:4:1) and then each solution at the concentration of 3.3, 1 or 0.33 (mg/mL) was prepared. Each of these solutions was subcutaneously administrated to the rats at the dose of 3 mL/kg (10, 3 and 1 mg/kg). For the control, just only the solvent (saline:polyethylene glycol 400:ethanol=5:4:1) was subcutaneously administrated at the dose of 3 mL/kg. Immediately after this subcutaneous administration, 200 g/L glucose solution was orally administered at the dose of 10 mL/kg (2 g/kg). The subcutaneous administration was performed with 26G needle and 1 mL syringe. The oral administration was performed with gastric tube for rat and 2.5 mL syringe. The head count in one group was 3. Collection of urine was performed in metabolic cage after these administrations were finished. The sampling time for collection of urine was 4 hours after the glucose administration. After collection of urine was finished, the urine volume was recorded and the urinary glucose concentration was measured. The glucose concentration was measured with a kit for laboratory test: Glucose B-Test WAKO (Wako Pure Chemical Industries, Ltd.). The amount of urinary glucose excretion in 4 hours per 1 body was calculated from urine volume and urinary glucose concentration.

[4] = system: ICR mice; test: Acute toxicity test, Method A (oral); format: in vivo; settings: 1000 mg/kg oral, male ICR mice, 5 animals, observation until 24 hours
Protocol: By adding of 0.5% sodium carboxymethylcellulose solution to the test compound, 100 mg/mL suspension was prepared. As experimental animal, male 6–7 weeks of age ICR mice fasted for 4 hours (Clea Japan, 28–33 g, 5 animals in each group) were used. The test suspension described above was orally administrated to the experimental animals described above at the dose of 10 mL/kg (1000 mg/kg) and then observation was performed until 24 hours after the administration.

[5] = system: normal mice; settings: J. Med. Chem., Vol. 39, pp. 3920–3928 (1996); cited from earlier work
[6] = molecular target: T1, human SGLT2 (Homo sapiens, UniProt P31639, I433V); test: Assay for inhibitory effect on human SGLT2 activity (uptake of methyl-α-D-glucopyranoside in COS-7 cells expressing transiently human SGLT2); format: cell-based
T1 construct: expressed in transfected cells; host or cells: COS-7 cells (RIKEN CELL BANK RCB0539), transient electroporation of plasmid KL29
T1 sequence (P31639 1-672 I433V): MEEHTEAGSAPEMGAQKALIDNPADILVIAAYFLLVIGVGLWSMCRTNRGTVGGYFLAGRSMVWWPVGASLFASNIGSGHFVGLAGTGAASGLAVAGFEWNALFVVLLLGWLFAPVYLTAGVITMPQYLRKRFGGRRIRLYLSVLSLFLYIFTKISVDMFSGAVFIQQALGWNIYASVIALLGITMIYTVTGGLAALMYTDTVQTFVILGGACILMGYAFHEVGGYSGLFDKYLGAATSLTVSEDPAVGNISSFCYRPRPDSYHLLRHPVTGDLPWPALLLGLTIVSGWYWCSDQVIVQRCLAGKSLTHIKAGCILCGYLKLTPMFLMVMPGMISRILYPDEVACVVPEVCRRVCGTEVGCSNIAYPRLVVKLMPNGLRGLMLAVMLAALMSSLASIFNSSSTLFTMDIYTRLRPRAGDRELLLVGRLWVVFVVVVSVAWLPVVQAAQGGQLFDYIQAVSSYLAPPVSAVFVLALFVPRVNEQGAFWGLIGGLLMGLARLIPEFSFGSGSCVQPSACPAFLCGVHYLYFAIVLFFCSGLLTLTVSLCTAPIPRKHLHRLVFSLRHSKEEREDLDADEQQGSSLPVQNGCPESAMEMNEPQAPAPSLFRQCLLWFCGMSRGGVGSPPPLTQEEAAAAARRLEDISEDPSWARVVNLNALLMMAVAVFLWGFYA
Protocol: Assay for Inhibitory Effect on Human SGLT2 Activity
1) Construction of the Plasmid Vector Expressing Human SGLT2
Preparation of the cDNA library for PCR amplification was performed by reverse transcription of a total RNA deprived from human kidney (Ori gene) with oligo dT as the primer, using Super Script preamplification system (Gibco-BRL: LIFE TECHNOLOGIES). The DNA fragment coding for human SGLT2 was amplified by the PCR reaction, in which the human kidney cDNA library described above was used as the template and the following oligo nucleotides 0702F and 0712R, presented as sequence number 1 and 2 respectively, were used as the primers. The amplified DNA fragment was ligated into pCR (Invitrogen), a vector for cloning, according to standard method of the kit. The Escherichia coli HB101 was transformed according to usual method and then selection of the transformants was performed on the LB agar medium containing 50 μg/mL of kanamycin. […] After plasmid DNA was extracted and purified from this transformant, the base sequence of the DNA fragment inserted at the multi-cloning sites of the vector pcDNA3.1 (−) Myc/His-B was analyzed. […]

Cc1[nH]nc(O[C@@H]2O[C@H](CO)[C@@H](O)[C@H](O)[C@H]2O)c1Cc1ccc(OC(C)C)cc1 [Example 35, 3-(β-D-Glucopyranosyloxy)-4-[(4-isopropoxyphenyl)methyl]-5-methyl-1H-pyrazole]
Amount of Urinary Glucose Excretion ([1]; 0.1 mg/kg intravenous): 16 mg | Amount of Urinary Glucose Excretion ([1]; 1 mg/kg intravenous): 74 mg | Amount of Urinary Glucose Excretion ([1]; 10 mg/kg intravenous): 188 mg | Death number [2]: 0/5

Cc1[nH]nc(O[C@@H]2O[C@H](CO)[C@@H](O)[C@H](O)[C@H]2O)c1Cc1ccc(C(C)C)cc1 [Example 45, 3-(β-D-Glucopyranosyloxy)-4-[(4-isopropylphenyl)methyl]-5-methyl-1H-pyrazole]
Amount of Urinary Glucose Excretion ([1]; 0.1 mg/kg intravenous): 2 mg | Amount of Urinary Glucose Excretion ([1]; 1 mg/kg intravenous): 45 mg | Amount of Urinary Glucose Excretion ([1]; 10 mg/kg intravenous): 132 mg | Amount of Urinary Glucose Excretion ([3]; 1 mg/kg subcutaneous): 22.1 mg | Amount of Urinary Glucose Excretion ([3]; 3 mg/kg subcutaneous): 83.2 mg | Amount of Urinary Glucose Excretion ([3]; 10 mg/kg subcutaneous): 153.3 mg | Death number [4]: 0/5

CSc1ccc(Cc2c(C(F)(F)F)[nH][nH]c2=O)cc1 [WAY-123783]
amount of excreted glucose [5]: increased | IC50 ([6]; COS-7 cells expressing transiently human SGLT2, uptake of methyl-α-D-(U-14C)glucopyranoside, 37° C., 2 hours): > 100 µM | inhibitory activity in human SGLT2 (in words) ([6]; assay for inhibitory effect on human SGLT2 activity): extremely weak inhibitory activity
